{
  "source": "paper PMC12655527",
  "about": "“An Investigational Study on the Role of ADME Agents’ Genetic Variation on DD217 Pharmacokinetics and Safety Profile” (Pharmaceuticals, 2025)",
  "system": "patients undergoing knee replacement surgery",
  "experiment": "Thromboembolic complications (DVT/PE) during 14-day therapy, phase II trial",
  "format": "in vivo, human",
  "settings": "for With DVT/PE / Without DVT/PE: 40 mg/day, number of patients; for cases of DVT/PE / PE/DVT, n (safety outcomes): 14 days",
  "description": "The design, eligibility criteria, and outcomes of the phase II clinical trial evaluating the safety and tolerability of DD217 (NCT05189002, ClinicalTrials.gov) have been described previously. Briefly, this was a multicenter, double-blind, randomized, prospective phase II study designed to determine the optimal dosing regimen and to assess the safety and efficacy of DD217 for the prevention of venous thromboembolism (VTE) in patients undergoing knee replacement surgery. Patients were randomized into one of three groups: two groups received oral DD217 at doses of 40 mg or 60 mg once daily, starting on the morning of the first postoperative day, and one group received the active comparator, dalteparin sodium. The treatment duration was 14 days.\nIn total, seven cases of DVT/PE were documented during the trial: four in the DD217 40 mg/day group, one in the DD217 60 mg/day group, and two in the dalteparin sodium group. In addition, two bleeding events were recorded: one clinically relevant non-major bleed in the DD217 60 mg/day group and one clinically non-relevant minor bleed in the dalteparin sodium group.",
  "data": [
    {"molecule": "CC(=N)N(C)c1ccc(C(=O)Nc2ccc(C)cc2C(=O)Nc2ccc(Cl)cn2)cc1.Cl", "note": "[DD217, N-(5-chloropyridin-2-yl)-5-methyl-2-[4-(N-methylacetimidamido)benzamido]benzamide hydrochloride]", "values": [
      {"measurement": "With DVT/PE", "setting": "ABCB1 rs1045642 C/C (n 5)", "result": 3},
      {"measurement": "Without DVT/PE", "setting": "ABCB1 rs1045642 C/C (n 5)", "result": 2},
      {"measurement": "With DVT/PE", "setting": "ABCB1 rs1045642 T/C (n 7)", "result": 1},
      {"measurement": "Without DVT/PE", "setting": "ABCB1 rs1045642 T/C (n 7)", "result": 6},
      {"measurement": "With DVT/PE", "setting": "ABCB1 rs1045642 T/T (n 4)", "result": 0},
      {"measurement": "Without DVT/PE", "setting": "ABCB1 rs1045642 T/T (n 4)", "result": 4},
      {"measurement": "With DVT/PE", "setting": "ABCB1 rs1128503 C/C (n 8)", "result": 3},
      {"measurement": "Without DVT/PE", "setting": "ABCB1 rs1128503 C/C (n 8)", "result": 5},
      {"measurement": "With DVT/PE", "setting": "ABCB1 rs1128503 C/T (n 6)", "result": 1},
      {"measurement": "Without DVT/PE", "setting": "ABCB1 rs1128503 C/T (n 6)", "result": 5},
      {"measurement": "With DVT/PE", "setting": "ABCB1 rs1128503 T/T (n 2)", "result": 0},
      {"measurement": "Without DVT/PE", "setting": "ABCB1 rs1128503 T/T (n 2)", "result": 2},
      {"measurement": "With DVT/PE", "setting": "ABCB1 rs2032582 G/G (n 8)", "result": 3},
      {"measurement": "Without DVT/PE", "setting": "ABCB1 rs2032582 G/G (n 8)", "result": 5},
      {"measurement": "With DVT/PE", "setting": "ABCB1 rs2032582 G/T (n 6)", "result": 1},
      {"measurement": "Without DVT/PE", "setting": "ABCB1 rs2032582 G/T (n 6)", "result": 5},
      {"measurement": "With DVT/PE", "setting": "ABCB1 rs2032582 T/T (n 2)", "result": 0},
      {"measurement": "Without DVT/PE", "setting": "ABCB1 rs2032582 T/T (n 2)", "result": 2},
      {"measurement": "With DVT/PE", "setting": "ABCB1 rs4148738 C/C (n 2)", "result": 0},
      {"measurement": "Without DVT/PE", "setting": "ABCB1 rs4148738 C/C (n 2)", "result": 2},
      {"measurement": "With DVT/PE", "setting": "ABCB1 rs4148738 T/C (n 6)", "result": 1},
      {"measurement": "Without DVT/PE", "setting": "ABCB1 rs4148738 T/C (n 6)", "result": 5},
      {"measurement": "With DVT/PE", "setting": "ABCB1 rs4148738 T/T (n 8)", "result": 3},
      {"measurement": "Without DVT/PE", "setting": "ABCB1 rs4148738 T/T (n 8)", "result": 5},
      {"measurement": "cases of DVT/PE", "setting": "DD217 40 mg/day group (n = 16)", "result": "four"},
      {"measurement": "PE/DVT, n (safety outcomes)", "setting": "DD217 40 mg/day oral, of 16 patients", "result": 4, "unit": "n"},
      {"measurement": "cases of DVT/PE", "setting": "DD217 60 mg/day group (n = 18)", "result": "one"},
      {"measurement": "PE/DVT, n (safety outcomes)", "setting": "DD217 60 mg/day oral, of 18 patients", "result": 1, "unit": "n"}
    ]}
  ]
}
